Measured values from US10010494B2, “Methods for the treatment of hyperhidrosis” (priority 2005, dated 2018).

Tested on: patient suffering from hyperhidrosis
Assay: Oral sulpiride given to a patient suffering from hyperhidrosis
Type: in vivo, human
Details: 200 mg daily
Protocol: A dose of 200 mg Sulpiride was administered to a patient suffering from hyperhidrosis.

For `CCN1CCCC1CNC(=O)c1cc(S(N)(=O)=O)ccc1OC` (stereo not drawn) [Sulpiride, N-[(1-ethylpyrrolidin-2-yl)methyl]-2-methoxy-5-sulfamoyl-benzamide], the “duration of reduction in sweating” value was “lasted for as long as the patient took a daily pill”, the effect on sweating was “reduction in sweating” and the “onset of reduction in sweating after beginning taking the drug” value was 72 h.
